How the values were obtained:
PGE1; rat stomach strips = assay: antagonism of PGE1 in in vitro tests on rat stomach strips; conditions: relative to racemic form 7
Description: Some differences in biological activities of the racemic forms and different optical isomers of these 8-azaprostanoids can be seen in the data presented in Table 1.

[1] = test system: stomach (necrosis and inflammation caused by ethanol); assay: oral cytoprotection against absolute-ethanol-induced stomach necrosis and inflammation (similar to Robert, U.S. Pat. No. 4,097,603); assay type: in vivo, rat (fasted, male); conditions: for Percent Protection, 2 mg/kg 1 hr: 2 mg/kg oral, 1 hour interval between administration of compound and subsequent administration of ethanol; for cytoprotective potency relative to racemic form: optical isomer versus racemic form, Table 1 data
Procedure: The data of Table 1 are from tests similar to one described by Robert [U.S. Pat. No. 4,097,603 (1978)] in which fasted, male rats were treated with 8-azaprostanoids orally. Then, at various times later they were treated orally with 1.0 ml of absolute ethanol. The rats were sacrificed after ethanol administration and the stomachs were removed, inspected, and rated. The ED50 values of Table 1 represent the doses of 8-azaprostanoids that gave 50% protection from the necrosis and inflammation of the stomach caused by ethanol. For comparison, values are given for the natural prostaglandin, PGE1, and for racemic 7-[2-oxo-5(4,4-difluoro-3-hydroxy-1n-dec-1(E)-enyl)-1-pyrrolidinyl]heptanoic acid, which is identified in Table 1 as compound 8. The corresponding racemic tert-butyl ester is identified as 7. The structures of 7 and 8, each of which is a mixture of 4 optical isomers, are as follows: [drawing 18]
*"1 hr" refers to the 1 hour interval between administration of compound
and subsequent administration of ethanol.
**"Peak Time" refers to the interval between administration of compound
and administration of ethanol at which greatest protection is observed.

SMILES | potency as an antagonist of PGE1 (PGE1; rat stomach strips) | Percent Protection, 2 mg/kg 1 hr [1] [%] | cytoprotective potency relative to racemic form [1] | Peak Time ([1]; interval between administration of compound and of ethanol at which greatest protection is observed) [min]
CCCCCCC(F)(F)C(O)/C=C/C1CCC(=O)N1CCCCCCC(=O)OC(C)(C)C (single isomer, unassigned) [7d(15R,S), tert-butyl 7-[2-oxo-5-(S or R)-5-(4,4-difluoro-3(R,S)hydroxy-ln-dec-1(E)-enyl)-1-pyrrolidinyl]heptanoate] | more potent than 7 as an antagonist of PGE1 | -5 | less potent than its racemic form 7 | 
CCCCCCC(F)(F)C(O)/C=C/C1CCC(=O)N1CCCCCCC(=O)OC(C)(C)C (single isomer, unassigned) [7l(15R,S), tert-butyl 7-[2-oxo-5(R or S)-5-(4,4-difluoro-3(R,S)hydroxy-ln-dec-1(E)-enyl)-1-pyrrolidinyl]heptanoate] |  | 59 |  | 
CCCCCCC(F)(F)[C@H](O)/C=C/[C@H]1CCC(=O)N1CCCCCCC(=O)O (single isomer, unassigned) [8l(15R), 7-[2-oxo-5(R or S)-5-(4,4-difluoro-3(R or S)-3-hydroxy-ln-dec-1(E)enyl)-1-pyrrolidinyl]heptanoic acid] |  |  | more potent as a cytoprotective agent than its racemic form 8 | 
CCCCCCC(F)(F)[C@@H](O)/C=C/[C@H]1CCC(=O)N1CCCCCCC(=O)O (single isomer, unassigned) [8l(15S), 7-[2-oxo-5(R or S)-5-(4,4-difluoro-3(R or S)-3-hydroxy-ln-dec-1(E)enyl)-1-pyrrolidinyl]heptanoic acid] |  |  |  | 15
